# In US4731486A, “Hydroformylation using low volatile phosphine ligands” (Union Carbide Corporation, priority 1986, dated 1988):
# Experiments:
# [1] = Batch hydroformylation of propylene in stirred autoclave (Examples 1, 2, 11, 14, 19)
# Procedure: A series of various rhodium complex catalyst precursor solutions consisting essentially of the solubilized reaction product of rhodium dicarbonyl acetylacetonate and various monosulfonated triphenylphosphine metal salt ligands were prepared and employed to hydroformylate propylene into C4 aldehydes in the following manner.
# (§1) Each rhodium catalytic precursor solution so prepared was then employed to hydroformylate propylene in a magnetically stirred, 100 mL capacity, stainless steel autoclave which was attached to a gas manifold for introducing gases to the desired partial pressures. The autoclave was also equipped with a pressure calibrator for determining reaction pressure to ±0.01 psia. and a platinum resistance thermometer for determining reactor solution temperatures to ±0.10° C. The reactor was heated externally by two 300 watt heating bands. The reactor solution temperature was controlled by a platinum resistance sensor connected to an external proportional temperature controller for controlling the temperature of the external band heaters.
# (§2) In each non-aqueous hydroformylation reaction, about 15 milliliters (about 14 grams) of the rhodium catalytic precursor solution so prepared was charged to the autoclave reactor under nitrogen and heated to the reaction temperature employed (as given in Table 1 below). The reactor was then vented down to 5 psig. and a premixed gas mixture of 1:1:1 carbon monoxide:hydrogen:propylene was introduced into the reactor via the gas manifold (partial pressures given in Table 1) and the propylene so hydroformylated.
# (§3) A comparison of the catalytic activity of aqueous and non-aqueous solutions of monosulfonated triphenylphosphine sodium salt ligand promoted catalysts in hydroformylating various molecular weight alphe-olefins was determined as follows.
# Both the aqueous and non-aqueous hydroformylation reactions were conducted under identical conditions with regard to temperature, rhodium and ligand concentration, hydrogen and carbon monoxide partial pressure and olefin concentration.
# [2] = Batch hydroformylation of octene-1 (Examples 14, 15, 19)
# Procedure: as §1, §2
# (§4) The hydroformylation reaction rate in gram moles per liter per hour of C4 aldehydes produced was determined from sequential 5 psia. pressure drops in the reactor spanning the nominal operating pressure in the reactor, while the mole ratio of linear (n-butyraldehyde) to branched (2-methylpropionaldehyde) product was measured by gas chromatography and the results are given in Table 1 below.
# The same procedure and conditions employed in Example 1 of preparing various rhodium catalytic precursor solutions using rhodium dicarbonyl acetylacetonate, about a 3:1 (wt.:wt. ratio) mixture of Texanol® and CARBOWAX® TPEG-990 (about 25 wt. %) as the solubilizing agent, and a monosulfonated triphenylphosphine sodium salt ligand having the formula [drawing 26] and hydroformylating an olefin was repeated employing the various rhodium complex catalyst precursor solutions and using different alpha olefins as the hydroformylation feedstocks and the reaction conditions as shown in Table 14 below.
# The same procedure and conditions employed in Example 1 of preparing various rhodium catalytic precursor solutions using rhodium dicarbonyl acethylacetonate, a monosulfonated triphenylphosphine sodium salt ligand having the formula [drawing 27] and various mixtures of Texanol® and varying amounts (about 15 wt. % in Run No. 1 and about 10 wt. % in Run Nos. 2 to 5) of different added solubilizing agents as given in Table 15 below, and hydroformylating octene-1 was repeated employing the various rhodium complex catalyst precursor solutions and the reaction conditions as shown in Table 15 below.
# as §3
# [3] = Batch hydroformylation of hexene-1 (Example 14); conditions: Texanol/TPEG-990 3:1; 100° C.; 300 ppm Rh; 8.7 wt. % ligand; 75 psia 4:1 H2:CO
# Procedure: as §1
# In each non-aqueous hydroformylation reaction, about 15 milliliters (about 14 grams) of the rhodium catalytic precursor solution so prepared was charged to the autoclave reactor under nitrogen and heated to the reaction temperature employed (as given in Table 1 below). […]
# as §4, with “below. […]” for “below.”
# [4] = Solubility of TPPMS-Na in nonanal with various added solubilizing agents; type: physicochemical
# Procedure: The solubility of a monosulfonated triphenylphosphine sodium salt ligand (TPPMS-Na) having the formula [drawing 28] was measured in C9 aldehyde (nonanal) in the presence of various added solubilizing agents and various mixtures of such agents for the ligand. […] The solubilizing agents and their mixtures were employed in a 1:2 weight:weight ratio with the nonanal.
# [5] = TERGITOL 15-S-3/CARBOWAX PEG 600/Dimethyl Sulfoxide (4:1:1), 100° C., 200 ppm Rh, 90 psia 1:1:1 H2:CO:C3H6
# [6] = TERGITOL 15-S-7/CARBOWAX TPEG 990/N-Methyl Pyrolidone (4:1:1), 100° C., 200 ppm Rh, 90 psia 1:1:1 H2:CO:C3H6
# [7] = TERGITOL 15-S-7, 100° C., 200 ppm Rh, 90 psia 1:1:1 H2:CO:C3H6
# [8] = TERGITOL 24-L-75N/NIAX PPG 1025 (4:1), 100° C., 200 ppm Rh, 90 psia 1:1:1 H2:CO:C3H6
# [9] = TERGITOL NP-4/CARBOWAX TPEG 990 (4:1), 100° C., 200 ppm Rh, 90 psia 1:1:1 H2:CO:C3H6
# [10] = TERGITOL NP-9, 100° C., 200 ppm Rh, 90 psia 1:1:1 H2:CO:C3H6
# [11] = Texanol/TPEG-990 3:1, 90° C., 300 ppm Rh, 8.7 wt. % ligand, 90 psia 1:1:1 H2:CO:C3H6
# [12] = aqueous (water as solvent), 100° C., 300 ppm Rh, 90 psia 1:1:1 H2:CO:Propylene
# [13] = non-aqueous (Texanol/Carbowax TPEG990 2.6:1), 100° C., 300 ppm Rh, 90 psia 1:1:1 H2:CO:Propylene
# [14] = Texanol/Benzonitrile (8:1), 90° C., 200 ppm Rh, 10 wt. % ligand, 75 psia 4:1 H2:CO
# [15] = Texanol/Carbowax PEG 150, 90° C., 200 ppm Rh, 10 wt. % ligand, 75 psia 4:1 H2:CO
# [16] = Texanol/Dimethyl Sulfoxide (5.5:1), 90° C., 200 ppm Rh, 10 wt. % ligand, 75 psia 4:1 H2:CO
# [17] = Texanol/Niax PPG-1025, 90° C., 200 ppm Rh, 10 wt. % ligand, 75 psia 4:1 H2:CO
# [18] = Texanol/Sulfolane (8:1), 90° C., 200 ppm Rh, 10 wt. % ligand, 75 psia 4:1 H2:CO
# [19] = Texanol/TPEG-990 3:1, 100° C., 300 ppm Rh, 8.7 wt. % ligand, 75 psia 4:1 H2:CO
# [20] = aqueous (water as solvent), 100° C., 300 ppm Rh, 90 psia 1:1 H2:CO
# [21] = non-aqueous (Texanol/Carbowax TPEG990 2.6:1), 100° C., 300 ppm Rh, 90 psia 1:1 H2:CO
compound,measurement,setting,value
O=S(=O)([O-])c1cccc(P(c2ccccc2)c2ccccc2)c1.[Na+],Linear/Branched Aldehyde Mole Ratio,"[1]; 200 ppm Rh, about 120 mole equivalents ligand, 100° C., 60 psia 1:1:1 H2:CO:C3H6, Texanol/Carbowax PEG-600 10:1",6.4
same,Reaction Rate (C4 aldehydes),"[1]; 200 ppm Rh, about 120 mole equivalents ligand, 100° C., 60 psia 1:1:1 H2:CO:C3H6, Texanol/Carbowax PEG-600 10:1, average of two runs",0.28 Gmoles/L/Hr
same,Linear/Branched Aldehyde Mole Ratio,[1]; [5],5.6
same,Reaction Rate (C4 aldehydes),[1]; [5],0.25 G moles/L/hr
same,Linear/Branched Aldehyde Mole Ratio,[1]; [6],5.0
same,Reaction Rate (C4 aldehydes),[1]; [6],0.75 G moles/L/hr
same,Linear/Branched Aldehyde Mole Ratio,[1]; [7],4.7
same,Reaction Rate (C4 aldehydes),[1]; [7],0.49 G moles/L/hr
same,Linear/Branched Aldehyde Mole Ratio,[1]; [8],5.3
same,Reaction Rate (C4 aldehydes),[1]; [8],0.54 G moles/L/hr
same,Linear/Branched Aldehyde Mole Ratio,[1]; [9],6.0
same,Reaction Rate (C4 aldehydes),[1]; [9],0.59 G moles/L/hr
same,Linear/Branched Aldehyde Mole Ratio,[1]; [10],5.1
same,Reaction Rate (C4 aldehydes),[1]; [10],0.67 G moles/L/hr
same,Linear/Branched Aldehyde Mole Ratio,[1]; [11],5.0
same,Reaction Rate,[1]; [11],1.72 G moles/L/hr
same,Linear/Branched Aldehyde Mole Ratio,[1]; [12],19.3
same,Reaction Rate,[1]; [12],0.07 G Moles/L/Hr
same,Linear/Branched Aldehyde Mole Ratio,[1]; [13],4.8
same,Reaction Rate,[1]; [13],2.60 G Moles/L/Hr
same,Linear/Branched Aldehyde Mole Ratio,[2]; [14],26.6
same,Reaction Rate (C9 aldehydes),[2]; [14],0.47 G moles/L/hr
same,Linear/Branched Aldehyde Mole Ratio,[2]; [15],17.6
same,Reaction Rate (C9 aldehydes),[2]; [15],1.12 G moles/L/hr
same,Linear/Branched Aldehyde Mole Ratio,[2]; [16],18.7
same,Reaction Rate (C9 aldehydes),[2]; [16],0.95 G moles/L/hr
same,Linear/Branched Aldehyde Mole Ratio,[2]; [17],23.9
same,Reaction Rate (C9 aldehydes),[2]; [17],0.71 G moles/L/hr
same,Linear/Branched Aldehyde Mole Ratio,[2]; [18],19.1
same,Reaction Rate (C9 aldehydes),[2]; [18],0.98 G moles/L/hr
same,Linear/Branched Aldehyde Mole Ratio,[2]; [19],14.8
same,Reaction Rate,[2]; [19],4.17 G moles/L/hr
same,Linear/Branched Aldehyde Mole Ratio,[2]; [20],40.9
same,Reaction Rate,[2]; [20],0.11 G Moles/L/Hr
same,Linear/Branched Aldehyde Mole Ratio,[2]; [21],5.8
same,Reaction Rate,[2]; [21],2.84 G Moles/L/Hr
same,Linear/Branched Aldehyde Mole Ratio,[3],13.4
same,Reaction Rate,[3],5.21 G moles/L/hr
same,TPPMS-Na Solubility,"[4]; NIAX PPG-1025, 25 deg. C.",< 2 Weight Percent
same,TPPMS-Na Solubility,"[4]; NIAX PPG-1025, 100 deg. C.",2 Weight Percent
same,TPPMS-Na Solubility,"[4]; TERGITOL 15-S-3/CARBOWAX PEG 600 (4:1), 25 deg. C.",2 Weight Percent
same,TPPMS-Na Solubility,"[4]; TERGITOL 15-S-3/CARBOWAX PEG 600 (4:1), 100 deg. C.",> 10 Weight Percent
